In patent US20250230193A1, “CYCLIC COMPOUND HAVING SELECTIVE KRAS INHIBITORY EFFECT ON HRAS AND NRAS” (CHUGAI SEIYAKU KABUSHIKI KAISHA, priority 2022, published 2025):
Where a SMILES comes first, the peptide text is derived from it. Bridges are numbered along the chain shown (N, C = ends). [ ]: non-standard residue; d: D form. The star is where a group is joined. hPhe(3-Cl-4-CF3) = N[C@@H](CCc1ccc(C(F)(F)F)c(Cl)c1)C(=O)O; NPrPhe(4-CF3) = CCCN[C@@H](Cc1ccc(C(F)(F)F)cc1)C(=O)O; NMeGly(cPent) = CN[C@H](C(=O)O)C1CCCC1; NMeF = CN[C@@H](Cc1ccccc1)C(=O)O; NMeD = CN[C@@H](CC(=O)O)C(=O)O; NMeL = CN[C@@H](CC(C)C)C(=O)O; Azetidin(1-yl) = C1CN(*)C1; Morpholide = C1CN(*)CCO1; NMeA = CN[C@@H](C)C(=O)O; Ac5c = NC1(C(=O)O)CCCC1; Aze = O=C(O)[C@@H]1CCN1; Ac4c = NC1(C(=O)O)CCC1; NEtG = CCNCC(=O)O; Sar = CNCC(=O)O

Tests used:
[1] = molecular target: GDP-bound NRAS wild-type protein (Homo sapiens, UniProt P01111); test: Binding to NRAS by surface plasmon resonance (SPR), Single Cycle Kinetics; conditions: SPR; for NRAS/KRAS (ratio of KD value with respect to NRAS to KD value with respect to KRAS) / NRAS/KRAS (ratio of KD value for NRAS to KD value for KRAS): GDP-bound NRAS wild-type vs GDP-bound KRAS wild-type
Chain of GDP-bound NRAS wild-type protein (P01111 whole entry): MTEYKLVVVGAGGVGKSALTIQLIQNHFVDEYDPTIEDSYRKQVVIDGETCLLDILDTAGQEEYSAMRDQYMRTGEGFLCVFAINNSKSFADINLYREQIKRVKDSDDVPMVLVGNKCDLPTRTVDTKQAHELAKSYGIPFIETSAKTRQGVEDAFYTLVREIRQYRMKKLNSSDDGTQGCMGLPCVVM

[2] = molecular target: GDP-bound HRAS wild-type protein (Homo sapiens, UniProt P01112); test: Binding to HRAS by surface plasmon resonance (SPR), Single Cycle Kinetics; conditions: SPR; for HRAS/KRAS (ratio of KD value with respect to HRAS to KD value with respect to KRAS) / HRAS/KRAS (ratio of KD value for HRAS to KD value for KRAS): GDP-bound HRAS wild-type vs GDP-bound KRAS wild-type
Chain of GDP-bound HRAS wild-type protein (P01112 whole entry): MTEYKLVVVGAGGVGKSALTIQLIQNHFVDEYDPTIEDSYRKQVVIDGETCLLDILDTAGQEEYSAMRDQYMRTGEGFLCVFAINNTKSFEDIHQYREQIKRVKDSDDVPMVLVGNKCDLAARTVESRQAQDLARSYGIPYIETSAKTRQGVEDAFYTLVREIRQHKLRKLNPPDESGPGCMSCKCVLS

## CCCN1C(=O)CN(C)C(=O)CN(CC)C(=O)[C@H]([C@@H](C)CC)NC(=O)[C@H](CC(C)C)N(C)C(=O)C[C@@H](C(=O)N2CCOCC2)N(C)C(=O)[C@H](C2CCCC2)N(C)C(=O)C2(CCCC2)NC(=O)CN(C)C(=O)[C@H](CCc2ccc(C(F)(F)F)c(Cl)c2)NC(=O)CN(C)C(=O)[C@@H]1Cc1ccc(C(F)(F)F)cc1 [PP0300] ([NMeL]I[NEtG][Sar][NPrPhe(4-CF3)][Sar][hPhe(3-Cl-4-CF3)][Sar][Ac5c][NMeGly(cPent)][NMeD]-Morpholide; lactam N-11)
[1]
  NRAS/KRAS (ratio of KD for GDP-bound NRAS wild-type to KD for KRAS): B (a compound having 3 or more and less than 10 is denoted as B)
[2]
  HRAS/KRAS (ratio of KD for GDP-bound HRAS wild-type to KD for KRAS): C (A compound having a KD ratio of 0.1 or more and less than 3 is denoted as C)

## CC[C@H](C)[C@@H]1NC(=O)[C@H](CC(C)C)N(C)C(=O)C[C@@H](C(=O)N2CCOCC2)N(C)C(=O)[C@H](C2CCCC2)N(C)C(=O)C2(CCC2)NC(=O)[C@@H]2C[C@@H](OCC(C)C)CN2C(=O)[C@H](CCc2cc(F)c(C(F)(F)F)c(F)c2)NC(=O)CN(C)C(=O)[C@H](Cc2ccc(C(F)(F)F)cc2)N2CCCC[C@@H](C2=O)N(C)C(=O)CN(C)C1=O [PP1160]
[1]
  NRAS/KRAS (ratio of KD value with respect to NRAS to KD value with respect to KRAS): B (a compound having 3 or more and less than 10 is denoted as B)
[2]
  HRAS/KRAS (ratio of KD value with respect to HRAS to KD value with respect to KRAS): B (a compound having 3 or more and less than 10 is denoted as B)

## CC[C@H](C)[C@@H]1NC(=O)[C@H](CC)N(C)C(=O)C[C@@H](C(=O)N(C)C)N(C)C(=O)[C@H](C2CCCC2)N(C)C(=O)C2(CCCC2)N(C)C(=O)[C@@H]2CCCN2C(=O)[C@H](CCc2cc(F)c(C(F)(F)F)c(F)c2)NC(=O)CN(C)C(=O)[C@H](Cc2ccc(C)cc2)N2CC/C=C\C[C@@H](C2=O)N(C)C(=O)CN(C)C1=O [PP1807]
[1]
  NRAS/KRAS (ratio of KD value for NRAS to KD value for KRAS): A (a compound having 10 or more and less than 20 is denoted as A)
[2]
  HRAS/KRAS (ratio of KD value for HRAS to KD value for KRAS): B (a compound having 3 or more and less than 10 is denoted as B)

## CCCN1C(=O)CN(CC)C(=O)CN(C)C(=O)[C@H]([C@@H](C)CC)NC(=O)[C@H](CC(C)C)N(C)C(=O)C[C@@H](C(=O)N2CCOCC2)N(C)C(=O)[C@H](C2CCCC2)N(C)C(=O)C2(CCC2)NC(=O)[C@@H]2CCCN2C(=O)[C@H](CCc2ccc(C(F)(F)F)c(Cl)c2)NC(=O)CN(C)C(=O)[C@@H]1Cc1ccc(C(F)(F)F)cc1 [PP1948] ([NMeL]I[Sar][NEtG][NPrPhe(4-CF3)][Sar][hPhe(3-Cl-4-CF3)]P[Ac4c][NMeGly(cPent)][NMeD]-Morpholide; lactam N-11)
[1]
  NRAS/KRAS (ratio of KD value for NRAS to KD value for KRAS): C (A compound having a KD ratio of 0.1 or more and less than 3 is denoted as C)
[2]
  HRAS/KRAS (ratio of KD value for HRAS to KD value for KRAS): C (A compound having a KD ratio of 0.1 or more and less than 3 is denoted as C)

## CC[C@H](C)[C@@H]1NC(=O)[C@H](CC(C)C)N(C)C(=O)C[C@@H](C(=O)N2CCOCC2)N(C)C(=O)[C@H](C2CCCC2)N(C)C(=O)C2(CCCC2)NC(=O)[C@@H]2CCCN2C(=O)[C@H](CCc2ccc(C(F)(F)F)c(Cl)c2)NC(=O)CN(C)C(=O)[C@H](Cc2ccccc2)N(C)C(=O)[C@@H]2CCN2C(=O)[C@H](C)N(C)C1=O [PP0011] ([NMeL]I[NMeA][Aze][NMeF][Sar][hPhe(3-Cl-4-CF3)]P[Ac5c][NMeGly(cPent)][NMeD]-Morpholide; lactam N-11)
[1]
  NRAS/KRAS (ratio of KD for GDP-bound NRAS wild-type to KD for KRAS): C (A compound having a KD ratio of 0.1 or more and less than 3 is denoted as C)
[2]
  HRAS/KRAS (ratio of KD for GDP-bound HRAS wild-type to KD for KRAS): C (A compound having a KD ratio of 0.1 or more and less than 3 is denoted as C)

## CCCN1C(=O)[C@@H]2CCN2C(=O)[C@H](C)N(C)C(=O)[C@H]([C@@H](C)CC)NC(=O)[C@H](CC(C)C)N(C)C(=O)C[C@@H](C(=O)N2CCC2)N(C)C(=O)[C@H](C2CCCC2)N(C)C(=O)C2(CCCC2)NC(=O)[C@@H]2CCCN2C(=O)[C@H](CCc2ccc(C(F)(F)F)c(Cl)c2)NC(=O)CN(C)C(=O)[C@@H]1Cc1ccc(C(F)(F)F)cc1 [PP0181] ([NMeL]I[NMeA][Aze][NPrPhe(4-CF3)][Sar][hPhe(3-Cl-4-CF3)]P[Ac5c][NMeGly(cPent)][NMeD]-{Azetidin(1-yl)}; lactam N-11)
[1]
  NRAS/KRAS (ratio of KD for GDP-bound NRAS wild-type to KD for KRAS): C (A compound having a KD ratio of 0.1 or more and less than 3 is denoted as C)
[2]
  HRAS/KRAS (ratio of KD for GDP-bound HRAS wild-type to KD for KRAS): B (a compound having 3 or more and less than 10 is denoted as B)

## CCCCO[C@@H]1C[C@H]2C(=O)NC3(CCC3)C(=O)N(C)[C@@H](C3CCCC3)C(=O)N(C)[C@H](C(=O)N3CCOCC3)CC(=O)N(C)[C@@H](CC(C)C)C(=O)N[C@@H]([C@@H](C)CC)C(=O)N(C)CC(=O)N(C)[C@H]3CCCCN(C3=O)[C@@H](Cc3ccc(C(F)(F)F)cc3)C(=O)N(C)CC(=O)N[C@@H](CCc3cc(F)c(C(F)(F)F)c(F)c3)C(=O)N2C1 [PP0999]
[1]
  NRAS/KRAS (ratio of KD value with respect to NRAS to KD value with respect to KRAS): C (A compound having a KD ratio of 0.1 or more and less than 3 is denoted as C)
[2]
  HRAS/KRAS (ratio of KD value with respect to HRAS to KD value with respect to KRAS): B (a compound having 3 or more and less than 10 is denoted as B)
